Assay [1] has as its system mongrel male rats. Nature of the assay: Hypolipidemic activity: experimental hyperlipidemia (atherogenic load).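 Further: serum drawn 18 h after the final dose from rats deprived of food over that interval, groups of 10 animals.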 Particulars: atherogenic diet, oral last four days, 50 µg/kg.
Assay [2] has as its system mongrel male mice. Briefly: Delayed hypersensitivity induced by picryl chloride (TCB), local ointment. Type of assay: in vivo. As to the method:
Effect study of the compounds on the delayed type hypersensitivity reaction induced in mice by 2.4.6-trichlorobenzol (TCB) was carried out according to the method of Tarayre et al. [Tarayre J.P., Barbara M., Aliaga M., Tisne-Versilles. Comparative actions of immunosuppressants, glucocorticoids and non-steroidal antiinflammatory drugs on various models of delayed hypersensitivity and on a non-immune inflammation in mice. Arzneim.-Forsch. Drug Res. (1990), Vol. 40, pip.1125-1131].
Studies were conducted on mongrel male mice with initial body mass 30-35 g. Each group included 10 animals. Mice were sensitized with 0.1 ml 3% TCB solution in acetone application on a shaved abdominal area. In 7 days, the anaphylaxis-provoking TCB dose (0.025 ml of 3% solution) was applied on both surfaces of the right ear. In 30 minutes 0.05 ml of the test ointment were rubbed into the same surfaces. 24 hours after edema induction, mice were sacrified, ears were cut off and weighed. Allergic reaction intensity was assessed by change in weight in grams of the right ear (the test one) in relation to the left ear (the control ear).
Allergic reaction inhibition expressed in percent was calculated according to the formula: 100-[(R-L(exper.))/(L):(R-L(control))/(L)x100](%) [formula] where R - the right ear weight, L - the left ear weight.
The test compounds were applied on the ear in the form of 1% and 5% ointment the base of which were 10% methylcellulose solution and propylene glycol at 1:1 ratio.
Groups of animals: • Group 1 - control, ointment base without active substance was applied on the ear of animals. • Group 2 - ointment base comprising 1% compound III was applied on the ear of animals. • Group 3 - ointment base comprising 1% compound XVII was applied on the ear of animals. • Group 4 - ointment base comprising 5% compound XLVIII was applied on the ear of animals.

Assay [3] concerns white mongrel male rats. Nature of the assay: Carrageenan paw edema, oral administration (series I). Type of assay: in vivo. As for the experimental part: Experiment was carried out on white mongrel male rats weighing 280-300 g. Carrageenan-induced edema was caused according to the method of Winter et al. [[inter et al. In: De Rosa M., Giroud J.P., Willoughby D.A. Studies of the mediators of the acute inflammatory reponse induced in rats in different sites by carrageenan and turpentine. […] Paw volume measurement was done using a plethysmograph (Ugo Basile) 1, 3 and 4 hours after carrageenan administration. Inhibition of inflammatory reaction expressed in percent, was calculated according to the formula: 100-[(R-L(exper.))/(L):(R-L(control))/(L)x100](%) [formula] where R - the right paw volume, L - the left paw volume.
Series I of experiment. […] The reference drug Naproxene was once administered at a dose 20 µg/kg 1 hour before edema induction. Each group included 10 animals.

Assay [4] relates to Lewis pulmonary carcinoma (LLC). Briefly: LLC metastasizing: compound III substance versus tabletted dosage form. Type of assay: in vivo, C57BL/6 female mice. As to conditions: C57BL/6 mice with LLC; oral 500 µg/kg (active basis) daily day 1-10; 24 days. As to the method:
To estimate therapeutic efficacy of compound III tabletted dosage form (0.2 g tablets 6 mm in diameter comprising 17 mg substance) studies were carried out on the model of spontaneous LLC carcinoma metastasizing.
Experiments were carried out on C57BL/6 female mice weighing 20-25 g. Experimental groups included 8 animals and the control group 11 mice. Substance and dosage form of compound III were administered orally at a dose 500 µg/kg (at a rate per an active basis) daily from day 1 till day 10 of experiment. Experiment lasted for 24 days.

In assay [5] the test system is mongrel male rats. Particulars: po, 96 h.
The subject of assay [6] is peripheral blood neutrophils. Nature of the assay: Activity of peripheral blood neutrophils in mice with LLC. It is filed as in vivo, C57BL/6 female mice. As to conditions: compound III 500.0 µg/kg for 10 days. As for the experimental part: Experiments were carried out on C57BL/6 female mice with intramuscularly transplanted LLC carcinoma. Activity of neutrophils was measured by days 11 and 14.
• control - animals with LLC tumor, 10 animals; • animals with LLC tumor + compound III at a dose 500.0 µg/kg for 10 days. 8 animals; • animals with LLC tumor + Cyclophosphane 5 times at a dose 20.0 mg/kg (in 48 hours) for 10 days, 8 animals; • compound III and Cyclophosphane according to the above dosage regimen, 8 animals.
Experiment duration was 14 days.

Assay [7] has as its system Strain Aichi of type A human influenza virus. Type of assay: in vivo. As to conditions: for Survival rate in percent: series with Control - 2 (34.5); for Protection degree in percent: series with Control - 2.
Assay [8] has as its system [C^14]-arachidonic acid. Nature of the assay: Metabolism of [C^14]-arachidonic acid in pulmonary tissue homogenate of treated mice. Type of assay: in vivo, CBA male mice. As to conditions: CBA mice lung homogenate; 50 µg/kg for three days. As for the experimental part: Studies were carried out on CBA male mice fed a standard vivarium ration. […] Then animals were sacrified, their lungs were taken out, frozen in liquid nitrogen, homogenized in a glass homogenizer manufactured by the Wheaton company (U.S.A.) at +4°C in 10 volumes 0.05 M Tris-HCl buffer. […] Densitometry of the autoradiochromatograms obtained on the X-ray films X-Omat AR (Kodak, U.S.A.) and HS 11 (ORWO, Germany) were performed on the KS 3 densiscan (Kipp and Zonnen, Holland). Quantative analysis of individual eucosanoids was carried out using radiometry of the fractions obtained with high performance liquid chromatography (the Gilson company HPLC-system, France; the Du Pont company ZORBAX C8 column, U.S.A.) and with elution of spots on TLC-plates.

Assay [9] deals with mongrel guinea-pigs. As to conditions: po, 0.05 mg/kg.
Setting [10] is: intragastral four times 50 µg/kg.

Like-named read-outs stand apart in the source and are kept apart here. Marks after values point to notes of the source that are not given here.

γ-L-glutamylhistamine [compound XLIV]: in assay [1] (blood), the HDL-CS is reported as 47,3±1,1***^A, the “LDL-CS+ VLDL-CS” value is given as 37,4±1,1***^A, the “Total CS” value is on record as 84,7±3,0**^A and the Triglycerides is 85,0±6,3***^A. Besides, in assay [1] (cholesterol index), the Kcs is given as 0,79±0,02***^A.
With `O=C(O)CCCC(=O)NCCc1c[nH]cn1` [compound III, N-GLUTARYLHISTAMINE], the “Weight of years (g) left” value in [2] was determined as 15.4 ± 1.12 g. Also, in assay [2] (mice, TCB, 1% ointment), the “Reaction inhibition (%)” value is recorded as 38% and the “weight increment” value is recorded as 4.9 ± 0.5 g. Moreover, in assay [3] (setting [10]), the “Inflammation inhibition (%)” value amounted to 30%, the Volume increment was 0.49 ± 0.07 and the “Volume of paws (conditional units) left” value is recorded as 1.23 ± 0.41 conditional units. Moreover, in assay [3] (intragastral four times 50 µg/kg 72, 48, 24 and 1 hour before), the “Volume of paws (conditional units) Right” value stood at 1.72 ± 0.27 conditional units. Further, in assay [4], the “Mean number of metastases” value is 22.5 ± 0.9, the Metastasizing inhibition percent was found to be 46.4%, the “Metastasizing rate in percent” value amounted to 100% and the “Tumor mass” value was 12.9 ± 0.9 g. Further, in assay [5] (0.05 mg/kg), the HDL-CS is on record as 46,1±2,8**^A, the Kcs was 0,9±0,04***^A, the “LDL-CS+ VLDL-CS” value was 41,7±3,1***^A and the “Total CS” value is reported as 87,8±2,8*^A. Also, in [5] (0.05 mg/kg), the Triglycerides was 136,4±9,7. In addition, in assay [5] (0.5 mg/kg), the HDL-CS was 53,1±6,2*^A, the Kcs is reported as 0,62±0,05***^A, the “LDL-CS+ VLDL-CS” value is given as 33,1±2,9***^A and the “Total CS” value is 86,2±5,6. Besides, the Triglycerides in assay [5] (0.5 mg/kg) is on record as 90,0±6,7***^A. Also, in [6] (Background), the “Percent of active neutrophils” value worked out at 20.1 ± 2.7%. Also, the “Percent of active neutrophils” value in [6] (day 11) is 9.3 ± 1.7%. The “Percent of active neutrophils” value in assay [6] (day 14) is given as 15.3 ± 4.3%. Moreover, the “MLT” value in assay [7] (series with Control - 2 (9.1), 50 µg/kg orally, 3 days before and 10 days following infection) was 10.1 days. Also, the “MLT, days” value in [7] (series with Control - 2 (9.1), 500 µg/kg orally, 3 days before and 10 days following infection) is given as 11.5*^2 days. Also, in assay [7] (50 µg/kg orally), the “Survival rate in percent” value is given as 86.6*^2% and the “Protection degree in percent” value is 52.1%. Moreover, in assay [7] (500 µg/kg orally), the “Survival rate in percent” value is recorded as 76.6*^2% and the “Protection degree in percent” value was found to be 42.2%. Besides, in assay [8], the “5-HETE+HHT, percent of AA conversion” value was 13.64 ± 0.26% of AA conversion; the “6-keto-PGF1α, percent of AA conversion” value is on record as 7.95 ± 0.28% of AA conversion; the “12-, 15-HETE, percent of AA conversion” value was 23.82 ± 0.82% of AA conversion; the “PGE2, percent of AA conversion” value is on record as 3.07 ± 0.11% of AA conversion. Moreover, in [8], the “PGF2α, percent of AA conversion” value is given as 8.05 ± 0.15% of AA conversion; the “Phospholipids, percent of AA conversion” value was 7.41 ± 0.25% of AA conversion; the “TXB2, percent of AA conversion” value was 5.76 ± 0.24% of AA conversion; the “Unmetabolized AA, percent of AA conversion” value is listed as 15.32 ± 1.56% of AA conversion. Further, in assay [9], the Anaphylactic index is 0.83* and the Seizures in percent was 13,3* percent.

Values taken from patent EP2229935A1, “Peptide derivatives or pharmaceutically acceptable salts thereof, method for producing the same, use of said derivatives and pharmaceutical composition” (Nebolsin, Vladimir Evgenievich, priority 1997, dated 1999).
